This is an account of results in ChEMBL document CHEMBL1155955, “Structure-activity relationship studies of the chromosome segregation inhibitor, Incentrom A” (2008).

Values after ≈ are worked out from the molar mass of the structure shown. Active and inactive are the calls of the source. No cut-off for these calls is given here.

The first experiment deals with Saccharomyces cerevisiae. The experiment can be described thus: Inhibition of chromosome segregation in yeast YPH278 at 15 uM. Format: functional, organism-based.
For `OC(CN1CCN(C/C=C/c2ccccc2)CC1)Cn1c2ccccc2c2ccccc21` (stereo unspecified), the result was Active.

The test system of a further experiment is Saccharomyces cerevisiae. The experiment is described as follows: Antiproliferative activity against yeast YPH278 assessed as reduction in cell viability after 24 hrs. Format: functional.
In the case of `Nc1ccc(/C=C/CN2CCN(CCCCn3c4ccccc4c4ccccc43)CC2)cc1`, the MIC was determined as 15 µM (≈ 6.58 µg/mL). Turning to `OC(CN1CCN(C/C=C/c2ccccc2)CC1)Cn1c2c(c3ccccc31)CCCC2` (stereo unspecified), the MIC was found to be 25 µM (≈ 10.7 µg/mL). On the same count and under the same terms, to `C(=C\c1ccccc1)/CN1CCN(CCCCCCn2c3ccccc3c3ccccc32)CC1` belongs 7 µM (≈ 3.16 µg/mL); to `CCCCCCCCOc1ccc(CCCN2CCN(CCCCn3c4ccccc4c4ccccc43)CC2)cc1`, greater than 45 µM.

As to `COc1ccc(CCCN2CCN(CCCCn3c4ccccc4c4ccccc43)CC2)cc1`, the MIC came to 8 µM (≈ 3.65 µg/mL). On the same count and under the same terms, with `C(=C\c1ccccc1)/CN1CCN(CCCCCn2c3ccccc3c3ccccc32)CC1` the figure was 6 µM (≈ 2.63 µg/mL). For the molecule `CC(=O)OC(Cc1ccccc1)CN1CCN(CCCCn2c3ccccc3c3ccccc32)CC1` (stereo unspecified), the minimum inhibitory concentration (MIC) is 18 µM (≈ 8.71 µg/mL). Same read-out and setting: with `C(=C\c1ccccc1)/CN1CCN(CCCCn2c3c(c4ccccc42)CCCC3)CC1` the figure was 10 µM (≈ 4.28 µg/mL); with `CC(=O)OC(CN1CCN(C/C=C/c2ccccc2)CC1)Cn1c2ccccc2c2ccccc21` (stereo unspecified), 18 µM (≈ 8.42 µg/mL); with `OC(CN1CCN(C/C=C/c2ccccc2)CC1)Cn1ccc2ccccc21` (stereo unspecified), greater than 45 µM. Regarding `O=C(OC(CN1CCN(C/C=C/c2ccccc2)CC1)Cn1c2ccccc2c2ccccc21)c1ccccc1` (stereo unspecified), the MIC was greater than 45 µM. As to `c1ccc(CCN2CCN(CCCCn3c4ccccc4c4ccccc43)CC2)cc1`, the MIC is 9 µM (≈ 3.7 µg/mL). Consider `OC(CN1CCN(CCCc2ccccc2)CC1)Cn1c2ccccc2c2ccccc21` (stereo unspecified), for which the MIC was determined as 20 µM (≈ 8.55 µg/mL). The same measure, in the same setting: to `Oc1ccc(CCCN2CCN(CCCCn3c4ccccc4c4ccccc43)CC2)cc1` belongs 28 µM (≈ 12.4 µg/mL); to `COc1cccc(/C=C/CN2CCN(CCCCn3c4ccccc4c4ccccc43)CC2)c1`, 12 µM (≈ 5.44 µg/mL); to `[N-]=[N+]=Nc1ccc(/C=C/CN2CCN(CCCCn3c4ccccc4c4ccccc43)CC2)cc1`, 5 µM (≈ 2.32 µg/mL). In the case of `c1ccc(COc2ccc(CCCN3CCN(CCCCn4c5ccccc5c5ccccc54)CC3)cc2)cc1`, the MIC was greater than 45 µM. The same measure, in the same setting: with `O=[N+]([O-])c1ccc2c(c1)c1ccccc1n2CCCCN1CCN(C/C=C/c2ccccc2)CC1` the figure was 5 µM (≈ 2.34 µg/mL).

On to `CN(C)c1ccc(/C=C/CN2CCN(CCCCn3c4ccccc4c4ccccc43)CC2)cc1`, for which the MIC was found to be 42 µM (≈ 19.6 µg/mL). Same read-out and setting: to `Oc1cccc(/C=C/CN2CCN(CCCCn3c4ccccc4c4ccccc43)CC2)c1` belongs 27 µM (≈ 11.9 µg/mL); to `OC(CN1CCN(C/C=C/c2ccccc2)CC1)Cn1c2ccccc2c2ccccc21` (stereo unspecified), 15 µM (≈ 6.38 µg/mL). On the same count and under the same terms, to `c1ccc(CCCCN2CCN(CCCCn3c4ccccc4c4ccccc43)CC2)cc1` belongs 5 µM (≈ 2.2 µg/mL); to `O[C@H](CN1CCN(C/C=C/c2ccccc2)CC1)Cn1c2ccccc2c2ccccc21`, 14 µM (≈ 5.96 µg/mL); to `c1ccc(C2OC2CN2CCN(CCCCn3c4ccccc4c4ccccc43)CC2)cc1` (stereo unspecified), 7 µM (≈ 3.08 µg/mL). The same measure, in the same setting: with `O=C(OC(Cc1ccccc1)CN1CCN(CCCCn2c3ccccc3c3ccccc32)CC1)c1ccccc1` (stereo unspecified) the figure was greater than 45 µM; with `c1ccc(CCCCCN2CCN(CCCCn3c4ccccc4c4ccccc43)CC2)cc1`, 4 µM (≈ 1.81 µg/mL). Consider `O=C(Nc1ccc2c(c1)c1ccccc1n2CCCCN1CCN(C/C=C/c2ccccc2)CC1)c1ccccc1`, for which the MIC is greater than 45 µM. Consider `CC(=O)Nc1ccc2c(c1)c1ccccc1n2CCCCN1CCN(C/C=C/c2ccccc2)CC1`, for which the MIC is greater than 45 µM. Still for that read-out and setting: with `C(=C\c1ccccc1)/CN1CCN(CCCn2c3ccccc3c3ccccc32)CC1` the figure was 12 µM (≈ 4.91 µg/mL); with `O=c1c2ccccc2n(CCCCN2CCN(C/C=C/c3ccccc3)CC2)c2ccccc12`, greater than 45 µM; with `CCCCCCOc1ccc(CCCN2CCN(CCCCn3c4ccccc4c4ccccc43)CC2)cc1`, greater than 45 µM.

Consider `O=C(CN1CCN(C/C=C/c2ccccc2)CC1)Cn1c2ccccc2c2ccccc21`, for which the MIC is greater than 45 µM. On to `C(=C\c1ccccc1)/CN1CCN(CCCCn2c3ccccc3c3ccccc32)CC1`, for which the MIC is 5 µM (≈ 2.12 µg/mL). On the same count and under the same terms, with `C(=C\c1ccccc1)/CN1CCN(CCCCCCCCn2c3ccccc3c3ccccc32)CC1` the figure was 44 µM (≈ 21.1 µg/mL); with `[N-]=[N+]=NC(CN1CCN(C/C=C/c2ccccc2)CC1)Cn1c2ccccc2c2ccccc21` (stereo unspecified), greater than 45 µM; with `OC(CN1CCN(C/C=C/c2ccccc2)CC1)CN(c1ccccc1)c1ccccc1` (stereo unspecified), 45 µM (≈ 19.2 µg/mL). The same measure, in the same setting: with `OC(Cc1ccccc1)CN1CCN(CCCCn2c3ccccc3c3ccccc32)CC1` (stereo unspecified) the figure was 12 µM (≈ 5.3 µg/mL); with `OC(CN1CCN(C/C=C/c2ccccc2)CC1)CN1c2ccccc2Oc2ccccc21` (stereo unspecified), 7 µM (≈ 3.09 µg/mL). For `Nc1ccc(CCCN2CCN(CCCCn3c4ccccc4c4ccccc43)CC2)cc1`, the MIC turned out to be 16 µM (≈ 7.05 µg/mL).

With `O[C@@H](CN1CCN(C/C=C/c2ccccc2)CC1)Cn1c2ccccc2c2ccccc21`, the MIC was 15 µM (≈ 6.38 µg/mL).

Take `c1ccc2cc(CN3CCN(CCCCn4c5ccccc5c5ccccc54)CC3)ccc2c1`: the MIC was 30 µM (≈ 13.4 µg/mL). On to `c1ccc2c(c1)c1ccccc1n2CCCCN1CCN(CCCC2CCCCC2)CC1`, for which the MIC was found to be 5 µM (≈ 2.16 µg/mL). On the same count and under the same terms, to `OC(CN1CCN(Cc2ccccc2)CC1)Cn1c2ccccc2c2ccccc21` (stereo unspecified) belongs greater than 45 µM.

In a further experiment the test system is Saccharomyces cerevisiae. The experiment is described as follows: Inhibition of chromosome segregation in yeast YPH278 at 5 uM. Format: functional, organism-based.
Consider `[N-]=[N+]=Nc1ccc(/C=C/CN2CCN(CCCCn3c4ccccc4c4ccccc43)CC2)cc1`, for which the outcome was Active. For `C(=C\c1ccccc1)/CN1CCN(CCCCn2c3ccccc3c3ccccc32)CC1`, the result was Active.

Usually MIC stands for the least concentration at which growth counts as inhibited.
